Assay: thermodynamic acid dissociation constant (pKa) of pH sensitive reagents
Assay type: physicochemical
Conditions: reagent properties used in simulations

| SMILES | pKa |
| --- | --- |
| O=S1(=O)OC(c2cc(Br)c(O)c(Br)c2)(c2cc(Br)c(O)c(Br)c2)c2ccccc21 [Bromophenol Blue] | 4.11 |
| O=S1(=O)OC(c2ccc(O)c(Cl)c2)(c2ccc(O)c(Cl)c2)c2ccccc21 [Chlorophenol Red] | 6.11 |

— US7432109B2, “Spetroscopic pH measurement using optimized mixtures of reagents to extend measurement range” (Schlumberger Technology Corporation, priority 2002, dated 2008)
